In patent publication US11354990B2, “Treatment of kidney diseases associated with elevated AVP” (United States Government As Represented By The Department …, priority 2017, dated 2022):
“Also recorded” adds a separate entry of the source. One block for each molecule: values may come before it.

What was measured:
[1] = test system: rodent models of ADPKD; settings: cited from earlier work; for cystogenesis: rodent models of ADPKD, by reducing cAMP production in the kidney
[2] = target: T1, P2Y12 receptor (Rattus norvegicus, UniProt Q9EPX4); assay: Blockade of P2Y12 receptor in primary cultures of rat hypothalamic cells: expression of AVP; assay type: cell-based
T1 construct: endogenous in cells; host or cells: primary cultures of rat hypothalamic cells

[3] = test system: B6D2 mice; assay: Ticagrelor in diet (or clopidogrel in drinking water) for 14 days: urinary AVP, urine output and urine osmolality in mice; assay type: in vivo; settings: for effects shown in FIGS. 2-5 (urine output, urine osmolality, urinary AVP): comparison with other P2Y12 receptor antagonists
Protocol: The study evaluated the effect of increasing doses of ticagrelor from 0.05% to 0.25% (incremental doses of 0.05, 0.10, 0.15, 0.20 and 0.25%) administered to mice for 2 weeks and compared them with that obtained by administering increasing doses of clopidogrel bisulfate (20, 40 or 80 mg/kg bw/day). For this study adult B6D2 mice were used. Different doses of ticagrelor were administered embedded in diet. Clopidogrel bisulfate (Plavix® tablets) were powdered and dissolved in drinking water for administration. The concentration of clopidogrel in the water was adjusted on daily basis based on the water consumption by mice on the previous day.
Rodent diets containing ticagrelor at different concentrations were prepared as follows. 15 grams of ticagrelor was shipped to MP Biomedicals (Solon, Ohio, USA) for custom preparation of 10 kg of rodent chow in pellet form containing 0.15% ticagrelor. The custom-made diet was received and was stored at +4° C. Later in the study, for the preparation of diets containing 0.20% or 0.25%, the above custom-prepared diet (containing 0.15% ticagrelor) was used as a base and the required amount of ticagrelor was added. Diets containing 0.05 and 0.10% ticagrelor were prepared de novo.
Clopidogrel bisulfate was administered orally by mixing finely powdered Plavix® tablets (Bristol-Myers Squibb, New York, N.Y.) in drinking water. The concentration of the drug in the drinking water was adjusted daily based on the water consumption of the animals on the previous day. Three different doses (20, 40 and 80 mg/kg bw/day) were administered. Since it is not possible to work with more than 15 to 20 mice in metabolic cages at any given time, the experimental animals were handled in two batches in a staggered fashion. Urine samples were collected on day 0 (prior to the experimental period), on days 6/7 (end of the first week) and days 13/14 (end of the second week). Terminal blood samples were collected from the posterior vena cava at the time of euthanasia. Kidney tissues were collected and cortex and medulla were separated by sharp dissection and flash frozen for analysis. Within a few minutes after collection, blood samples were centrifuged at +4° C. and plasma was separated and frozen. Urinary AVP levels were assayed by ELISA.
(§1) Different doses of ticagrelor (0.05 to 0.25%) were administered to mice embedded in standard rodent chow (w/w) for 14 days. Twenty-four hour urine samples were collected from the mice by placing them in individual plastic metabolic cages (1 mouse/cage) for two consecutive days, with free access to food and water. Urine samples in the metabolic cages were collected under a layer of light mineral oil. The volumes of urine samples collected were recorded. Urine samples were centrifuged to remove particulate matter. Clear supernatants thus obtained were used for analysis. Blood samples were collected at the time of euthanasia on day 14, as per the protocol recommended by the AstraZeneca for samples destined for the determination of plasma ticagrelor. Briefly, under isoflourane anesthesia, blood from the posterior vena cava was collected and transferred to EDTA K-coated microtubes (Microvette®, Sarstedt, Nümbrecht, Germany). Plasma was separated by centrifugation within 30 min after collection and frozen at −80° C. The frozen samples were shipped in dry ice by FedEx to AstraZeneca (Mölndal, Sweden). At AstraZeneca R&D, the plasma concentration of ticagrelor was determined by liquid chromatography tandem mass spectrometry (LC-MS/MS). FIGS. 1-5 show the data obtained.

[4] = test system: lithium-induced NDI in rodent models; settings: cited from earlier work
[5] = test system: cAMP production in primary cultures of rat IMCD cells; assay: dDAVP-induced cAMP production in primary cultures of rat IMCD cells (EIA); assay type: cell-based
Protocol: FIG. 7 is a graph showing the effect of ticagrelor on dDAVP-induced cAMP production in primary cultures of rat IMCD cells: Cells were incubated for 48 h with ticagrelor (5 μM). During the second 24 hours, cells were challenged with dDAVP (20 nM).
dDAVP acting through the vasopressin V2 receptor in IMCD cells stimulates the production of cAMP (FIG. 7). In the collecting ducts in vivo, in the short-term AVP increases cellular cAMP levels to cause translocation of AQP2 protein from the subapical vesicles to apical plasma membrane, and thus increase the water permeability of the apical plasma membrane, the rate limiting barrier for transepithelial water transport. In the long-term, increased cellular cAMP levels induce transcriptional activation of AQP2 and other genes. […] Primary cultures of rat IMCD cells were prepared and incubated with desmopressin with/without ticagrelor (5 μM) as described above. For cAMP assay, the medium was gently aspirated, 200 μl of 0.1 M HCl was added to each insert and incubated for 20 min at room temperature. Then cells were scrapped off the semi-permeable support and lysed by pipetting up and down. The cell lysate was centrifuged at 1,000×g for 10 min. cAMP concentration in the supernatant was determined by an EIA kit (Cayman Chemical Co.) and normalized to the protein content of the wells (Pierce™ BCA Protein Assay Kit, Rockford, Ill.).

[6] = patients; long-term administration; cited from earlier work
[7] = test system: AQP2; assay: dDAVP-induced AQP2 mRNA expression in primary cultures of rat IMCD cells (real-time PCR); assay type: cell-based
Protocol: (§2) FIGS. 6A-C show the effect of ticagrelor on the mRNA expression of AQP2 (A) and AQP3 (B) relative to the expression R3-actin and the effect of ticagrelor on the mRNA expression of AQP2 relative to GAPDH (C) in primary cultures of rat inner medullary collecting duct (IMCD) cells. Cells were incubated with different concentrations of ticagrelor (0.5 to 25 μM) for 48 hours. During the second 24 hours, the cells were challenged with dDAVP (20 nM). The numbers in parentheses above the bars indicate the number of culture wells.
(§3) Primary cultures of rat inner medullary collecting duct (IMCD) cells were prepared. When the cells became 70-80% confluent, the medium was changed to relative starvation mode (low FBS), and used for testing the effect of Desmopressin (dDAVP), a V2 receptor-selective analogue of AVP, and/or ticagrelor. Cells were incubated for 48 h with ticagrelor ranging from 1.5 to 25 μM. During the second 24 hours, cells were challenged with dDAVP (20 nM). At the end of the incubation period, cells were harvested, RNA extracted, reverse transcribed and subjected to real-time PCR to determine the expression of AQP2 and AQP3 genes relative to the expression of the housekeeping genes (β-actin or GAPDH).
(§4) Results (FIGS. 6A-C) are presented as percent of the values in control incubations without any addition of agents. FIGS. 6A-C show the effect of different concentrations of ticagrelor on dDAVP (20 nM)-induced AQP2 or AQP3 expression relative to p-actin expression in primary cultures of rat IMCD cells. Two independent assays on primary cultures of IMCD cells derived from two different rats at different times were used, and the data obtained were pooled for analysis and presentation in the graphs. Data were analyzed by analysis of variance (ANOVA) followed by Tukey-Kramer Multiple Comparison Test. The numbers in parentheses above the bars indicate the number of culture wells.

[8] = test system: AQP3; assay: dDAVP-induced AQP3 mRNA expression in primary cultures of rat IMCD cells (real-time PCR); assay type: cell-based
Protocol: as §2, §3, §4

[9] = test system: medullary collecting duct cells; assay: Proliferation of medullary collecting duct cells; assay type: cell-based; settings: increasing concentrations of ticagrelor
[10] = Plasma concentration of ticagrelor by LC-MS/MS in mice fed ticagrelor; assay type: in vivo; settings: corresponding to a dose of 0.15% or above in food, day 14
Protocol: as §1

[11] = test system: ADPKD; settings: clinical trials; cited from earlier work
[12] = target: vasopressin V2 receptor (Homo sapiens, UniProt P30518); settings: chronic blockade of vasopressin V2 receptor; cited from earlier work
[13] = test system: DBA/2FG-pcy mouse model of ADPKD; settings: tolvaptan concentrations between 0.01% and 0.30% in food; cited from earlier work
[14] = target: CYP3A4 system (Homo sapiens, UniProt P08684); settings: cited from earlier work
[15] = in vivo; cited from earlier work
[16] = different concentrations of ticagrelor 48 h, dDAVP 20 nM during second 24 h
[17] = different concentrations of ticagrelor 48 h, dDAVP 20 nM during second 24 h, listed as Ticagrelor
[18] = ticagrelor 2 μM, listed as Ticagrelor
[19] = ticagrelor 10 μM, listed as Ticagrelor
[20] = ticagrelor 0.05 to 0.25% in food, 14 days

Sequence of CYP3A4 system (P08684 whole entry): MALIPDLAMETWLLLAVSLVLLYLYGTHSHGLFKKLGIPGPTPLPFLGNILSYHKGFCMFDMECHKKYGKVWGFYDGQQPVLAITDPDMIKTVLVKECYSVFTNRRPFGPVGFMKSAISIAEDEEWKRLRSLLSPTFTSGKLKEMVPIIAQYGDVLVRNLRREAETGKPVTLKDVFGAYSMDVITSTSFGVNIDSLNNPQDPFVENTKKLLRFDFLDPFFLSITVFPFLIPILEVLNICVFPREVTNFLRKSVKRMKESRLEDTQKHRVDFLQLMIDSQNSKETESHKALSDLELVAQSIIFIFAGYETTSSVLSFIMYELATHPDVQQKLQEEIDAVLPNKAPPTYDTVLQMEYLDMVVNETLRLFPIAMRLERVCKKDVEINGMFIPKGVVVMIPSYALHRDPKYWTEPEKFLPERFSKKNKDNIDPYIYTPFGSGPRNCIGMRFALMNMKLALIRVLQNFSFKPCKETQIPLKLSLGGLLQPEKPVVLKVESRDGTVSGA
T1 sequence (Q9EPX4 whole entry): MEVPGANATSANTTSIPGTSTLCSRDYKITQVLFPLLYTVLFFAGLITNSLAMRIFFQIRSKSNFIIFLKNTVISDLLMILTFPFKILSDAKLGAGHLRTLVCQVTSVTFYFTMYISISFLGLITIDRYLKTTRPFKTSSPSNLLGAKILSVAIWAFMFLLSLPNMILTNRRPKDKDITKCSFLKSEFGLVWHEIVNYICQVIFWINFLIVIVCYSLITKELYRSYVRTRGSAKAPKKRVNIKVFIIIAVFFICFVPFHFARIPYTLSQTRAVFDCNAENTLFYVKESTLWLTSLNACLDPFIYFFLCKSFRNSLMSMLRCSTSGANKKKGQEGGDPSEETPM
Sequence of vasopressin V2 receptor (P30518 whole entry, species assumed): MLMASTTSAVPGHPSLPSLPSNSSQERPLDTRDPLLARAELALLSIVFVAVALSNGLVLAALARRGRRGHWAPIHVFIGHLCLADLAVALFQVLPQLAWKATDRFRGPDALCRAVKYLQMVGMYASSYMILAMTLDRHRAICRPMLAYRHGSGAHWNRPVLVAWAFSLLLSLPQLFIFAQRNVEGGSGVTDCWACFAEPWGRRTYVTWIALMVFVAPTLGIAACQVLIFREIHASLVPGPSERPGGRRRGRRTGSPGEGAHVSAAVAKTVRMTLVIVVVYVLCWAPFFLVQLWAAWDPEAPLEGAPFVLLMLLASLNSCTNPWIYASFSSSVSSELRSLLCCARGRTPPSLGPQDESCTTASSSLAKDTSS

Structure (SMILES): Cc1ccccc1C(=O)Nc1ccc(C(=O)N2CCCC(N(C)C)c3ccccc32)cc1 (stereo not drawn) [OPC-31260]
cystogenesis [1]: consistently inhibited

expression of AVP [2]: increased
Structure (SMILES): Nc1c(S(=O)(=O)O)cc(Nc2ccc(Nc3ccccc3)c(S(=O)(=O)O)c2)c2c1C(=O)c1ccccc1C2=O [PSB-0739]

Structure (SMILES): COC(=O)[C@H](c1ccccc1Cl)N1CCc2sccc2C1 [clopidogrel, clopidogrel bisulfate]
effects shown in FIGS. 2-5 (urine output, urine osmolality, urinary AVP) [3]: could not be seen | effect on the production of AVP by the hypothalamus ([3]; mouse, in vivo): did not have such an effect | lithium-induced NDI [4]: significantly ameliorate

Structure (SMILES): NC(=O)CC[C@@H]1NC(=O)[C@H](Cc2ccccc2)NC(=O)[C@H](Cc2ccc(O)cc2)NC(=O)CCSSC[C@@H](C(=O)N2CCC[C@H]2C(=O)N[C@H](CCCN=C(N)N)C(=O)NCC(N)=O)NC(=O)[C@H](CC(N)=O)NC1=O [desmopressin, Desmopressin]
increase in cellular cAMP levels ([5]; 20 nM desmopressin, IMCD cells): 3.6 fold

Structure (SMILES): CC(=O)Oc1cc2c(s1)CCN(C(C(=O)C1CC1)c1ccccc1F)C2 (stereo not drawn) [prasugrel]
effects shown in FIGS. 2-5 (urine output, urine osmolality, urinary AVP) [3]: could not be seen

Structure (SMILES): CCCSc1nc(N[C@@H]2C[C@H]2c2ccc(F)c(F)c2)c2nnn([C@@H]3C[C@H](OCCO)[C@@H](O)[C@H]3O)c2n1 [ticagrelor]
side effects [6]: uncontrolled bleeding from wounds or internal ulcers | effect on dDAVP-induced AQP2 mRNA expression [7, 16]: augmented | effect on dDAVP-induced AQP2 mRNA expression [7, 17]: tendency for concentration-dependent enhancement | effect on dDAVP-induced AQP2 mRNA expression ([7]; ticagrelor 2 μM): augmentative effect was seen; also recorded: tendency to augment | effect on dDAVP-induced AQP2 mRNA expression [7, 18]: statistically significant | effect on dDAVP-induced increase in AQP2 expression ([7]; ticagrelor 5 μM): did not suppress | effect on dDAVP-induced AQP2 mRNA expression ([7]; ticagrelor 10 μM): more prominent | effect on dDAVP-induced AQP2 mRNA expression [7, 19]: statistically significant | effect on AQP2 gene expression ([7]; ticagrelor 25 μM): suppressing the gene expression to a very low level; also recorded: almost completely suppressed | effect on desmopressin-induced cAMP levels ([5]; 5 μM ticagrelor, 48 h, dDAVP 20 nM): did not have any significant effect | effect on dDAVP-induced AQP3 mRNA expression [8, 16]: augmented | effect on dDAVP-induced AQP3 mRNA expression [8, 17]: tendency for concentration-dependent enhancement | effect on dDAVP-induced AQP3 mRNA expression ([8]; ticagrelor 2 μM): augmentative effect was seen; also recorded: tendency to augment | effect on dDAVP-induced AQP3 mRNA expression [8, 18]: statistically significant | effect on dDAVP-induced increase in AQP3 expression ([8]; ticagrelor 5 μM): did not suppress | effect on dDAVP-induced AQP3 mRNA expression ([8]; ticagrelor 10 μM): more prominent | effect on dDAVP-induced AQP3 mRNA expression [8, 19]: statistically significant | effect on AQP3 gene expression ([8]; ticagrelor 25 μM): suppressing the gene expression to a very low level; also recorded: almost completely suppressed | urinary AVP (vasopressin) ([3]; 0.25% ticagrelor in the food): marked decrease | urine concentrating ability ([3]; 0.25% ticagrelor in the food): significant reduction | urinary AVP ([3]; lower doses of ticagrelor in the food): minimal effect | urine osmolality [3, 20]: decrease | urine output [3, 20]: increase | urinary AVP excretion ([3]; ticagrelor 0.05 to 0.25% in food, 14 days, 24-hour urine, normal mice): dose-related decrease; also recorded: dose-dependent decrease | urinary concentrating ability ([3]; ticagrelor 0.05 to 0.25% in food, 14 days, assessed by urine output and osmolality): dose-related decrease; also recorded: dose-dependent decrease | proliferation of medullary collecting duct cells [9]: decrease | plasma ticagrelor level above which the relation to urine osmolality and AVP was more pronounced [10]: above 1.30 μM

Structure (SMILES): Cc1ccccc1C(=O)Nc1ccc(C(=O)N2CCCC(O)c3cc(Cl)ccc32)c(C)c1 (stereo not drawn) [tolvaptan]
side effects [6]: severe polyuria (loss of water in the urine), nocturia (frequent urination in the night), thirst and dry mouth; also recorded: constipation, loss of appetite, dry skin, nausea, vomiting, and potential for acute liver failure | efficacy for the treatment of ADPKD [11]: established | endogenous production of AVP [12]: increased | optimum concentration in food [13]: 0.10% | metabolism [14]: metabolized by the CYP3A4 system | cyst growth ([1]; experimental models of ADPKD): slow down the cyst growth | cystogenesis [1]: consistently inhibited | pharmacokinetics [15]: dose-related pharmacokinetics, it is unpredictable in ADPKD patients
